SMILES strings stand for the structures.

This experiment deals with T1, Human M4 (Homo sapiens, UniProt P08173).
T1 sequence (P08173 1-479): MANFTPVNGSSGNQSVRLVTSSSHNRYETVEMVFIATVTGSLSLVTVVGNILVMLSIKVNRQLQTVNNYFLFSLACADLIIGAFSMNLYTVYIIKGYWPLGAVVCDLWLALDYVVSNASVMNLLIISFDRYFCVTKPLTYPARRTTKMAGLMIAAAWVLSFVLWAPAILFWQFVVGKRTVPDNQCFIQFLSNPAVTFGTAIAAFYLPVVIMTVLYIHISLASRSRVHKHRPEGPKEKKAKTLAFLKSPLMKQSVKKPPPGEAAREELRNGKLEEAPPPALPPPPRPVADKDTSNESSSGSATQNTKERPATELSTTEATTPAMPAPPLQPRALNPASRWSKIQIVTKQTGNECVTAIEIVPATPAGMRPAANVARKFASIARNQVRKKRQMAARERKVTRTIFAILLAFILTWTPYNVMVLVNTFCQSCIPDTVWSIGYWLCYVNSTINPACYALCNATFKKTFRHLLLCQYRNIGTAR
In words: cell-based. Particulars: for Emax: CHO-K1.

Protocol: Human M4 cDNA, along with the chimeric G protein Gqi5, were transfected into Chinese hamster ovary (CHO-K1) cells purchased from the American Type Culture Collection using Lipofectamine2000. M4/Gqi5/CHO cells were grown in Ham's F-12 medium containing 10% heat-inactivated fetal bovine serum (FBS), 20 mM HEPES, 500 μg/mL G418 sulfate, and 200 μg/mL Hygromycin B.
For high throughput measurement of agonist-evoked increases in intracellular calcium, CHO-K1 cells stably expressing muscarinic receptors were plated in growth medium lacking G418 and hygromycin at 15,000 cells/20 μL/well in Greiner 384-well black-walled, tissue culture (TC)-treated, clear-bottom plates (VWR). Cells were incubated overnight at 37° C. and 5% CO2. […] Test compound CRCs were then transferred to daughter plates (240 nL) using the Echo acoustic plate reformatter (Labcyte, Sunnyvale, Calif.) and then diluted into assay buffer (40 μL) to a 2× stock using a Thermo Fisher Combi (Thermo Fisher Scientific, Waltham, Mass.).
Calcium flux was measured using the Functional Drug Screening System (FDSS) 6000 or 7000 (Hamamatsu Corporation, Tokyo, Japan) as an increase in the fluorescent static ratio. Compounds were applied to cells (20 μL, 2×) using the automated system of the FDSS at 2-4 s into the protocol and the data were collected at 1 Hz. […] Agonist activity was analyzed as a concentration-dependent increase in calcium mobilization upon compound addition. Positive allosteric modulator activity was analyzed as a concentration-dependent increase in the EC20 acetylcholine response. Antagonist activity was analyzed as a concentration-dependent decrease in the EC80 acetylcholine response. Concentration-response curves were generated using a four-parameter logistical equation in XLFit curve fitting software (IDBS, Bridgewater, N.J.) for Excel (Microsoft, Redmond, Wash.) or Prism (GraphPad Software, Inc., San Diego, Calif.).

Turning to `Cc1nc2cc(C)c3c(N)c(C(=O)NCc4ccc(N5CCN(C)CC5)cc4)sc3n2n1` [Compound 8, 6-amino-2,5-dimethyl-N-(4-(4-methylpiperazin-1-yl)benzyl)thieno[3,2-e][1,2,4]triazolo[1,5-a]pyridine-7-carboxamide], it took 217 nM to reach a half-maximal effect (EC50) and the Emax was determined as 86%.
Compound `Cc1nc2cc(C)c3c(N)c(C(=O)N[C@@H]4CCN(c5ccc(F)cn5)C4)sc3n2n1` [Compound 15, (R)-6-amino-N-(1-(5-fluoropyridin-2-yl)pyrrolidin-3-yl)-2,5-dimethylthieno[3,2-e][1,2,4]triazolo[1,5-a]pyridine-7-carboxamide] returned a concentration for a half-maximal effect (EC50) of 1200 nM and an Emax of 43%.
In turn, `Cc1nc2cc(C)c3c(N)c(C(=O)N[C@H]4CCN(c5ccc(F)cn5)C4)sc3n2n1` [Compound 12, (S)-6-amino-N-(1-(5-fluoropyridin-2-yl)pyrrolidin-3-yl)-2,5-dimethylthieno[3,2-e][1,2,4]triazolo[1,5-a]pyridine-7-carboxamide] displayed a concentration giving a half-maximal response (EC50) of 596 nM and a maximal effect (Emax) of 66%.
The compound `Cc1nc2cc(C)c3c(N)c(C(=O)NC4CN(c5ncc(C6CC6)cc5C)C4)sc3n2n1` [Compound 9, 6-amino-N-(1-(5-cyclopropyl-3-methylpyridin-2-yl)azetidin-3-yl)-2,5-dimethylthieno[3,2-e][1,2,4]triazolo[1,5-a]pyridine-7-carboxamide] registered an EC50 of 863 nM and a maximal response (Emax) of 79%.

(Values after patent US10342782B2, “Positive allosteric modulators of the muscarinic acetylcholine receptor M4” (Vanderbilt University, priority 2016, dated 2019).)
